Test results: patent publication US10858415B2, “Peptide mimotopes of claudin 18.2 and uses thereof” (BioNTech AG, priority 2014, dated 2020)

How the values were obtained:
[1] = tested on: IMAB362; test: Peptide microarray incubation with IMAB362; type: binding; details: IMAB362 1 μg/ml; percentage of fluorescence assay signal of the hit peptide
Description: Peptides were synthesized and printed on peptidemicroarray slides essentially as described previously [Funkner, A. et al., J. Mol. Biol. 2013, 425, 1340-1362]. In brief, the peptides were synthesized using SPOT synthesis [Wenschuh, H. et al., Biopolymers 2000, 55, 188-206] cleaved from the solid support and cyclized (50% DMSO, PBS buffer pH 7-8, RT, 16 hours). Subsequently, all peptides were chemoselectively immobilized on functionalized glass slides as described earlier [Funkner, A. et al., J. Mol. Biol. 2013, 425, 1340-1362]. Each peptide was deposited on the microarray in triplicates.
The microarrays were incubated with 1.0 or 0.1 μg/ml IMAB362 in an HS 4800 microarray processing station (Tecan) for two hours at 30° C., followed by incubation with 1.0 μg/ml fluorescently labelled secondary antibody (Alexa647 anti-human Fc antibody; Jackson Immuno Research). Washing steps were performed prior every incubation step with 0.1% Tween-20 in 1×TBS. After the final incubation step the microarrays were washed (0.05% Tween-20 in 0.1×SSC) and dried in a stream of nitrogen. Each microarray was scanned using a GenePix Autoloader 4200AL (Molecular Devices, Pixel size: 10 μm). Signal intensities were evaluated using GenePix Pro 7.0 analysis software (Molecular Devices). For each peptide, the mean of the three triplicates was calculated.
Peptide microarrays were used for structure-activity-relationship (SAR) analysis and optimization of peptide binding affinity to IMAB362. For assay setup three variants of each cyclic hit peptide (sequences 1, 2 and 3, Table 1) were prepared differing in a) the immobilization site, b) the linker nature and c) the degree of conformational restriction (cyclic vs. linear). All peptides were chemically synthesized in a stepwise fashion from the C- to the N-terminus by the high-throughput SPOT synthesis approach [Wenschuh, H. et al., Biopolymers 2000, 55, 188-206] applying a cellulose membrane as solid support. After cleavage and isolation, the peptides were cyclised through disulfide formation between two internal Cys residues and immobilized to the microarray. Covalent attachment to the microarray was performed through a reactive moiety on either the N- or C-terminus of the peptides allowing chemoselective and directed immobilization through both ends of the peptides. Subsequently, peptide loaded microarrays were incubated with 1.0 or 0.1 μg/ml IMAB362 followed by incubation with 1 μg/ml fluorescently labelled secondary antibody, scanning and data evaluation.
Target sequence in this assay (as listed by the source): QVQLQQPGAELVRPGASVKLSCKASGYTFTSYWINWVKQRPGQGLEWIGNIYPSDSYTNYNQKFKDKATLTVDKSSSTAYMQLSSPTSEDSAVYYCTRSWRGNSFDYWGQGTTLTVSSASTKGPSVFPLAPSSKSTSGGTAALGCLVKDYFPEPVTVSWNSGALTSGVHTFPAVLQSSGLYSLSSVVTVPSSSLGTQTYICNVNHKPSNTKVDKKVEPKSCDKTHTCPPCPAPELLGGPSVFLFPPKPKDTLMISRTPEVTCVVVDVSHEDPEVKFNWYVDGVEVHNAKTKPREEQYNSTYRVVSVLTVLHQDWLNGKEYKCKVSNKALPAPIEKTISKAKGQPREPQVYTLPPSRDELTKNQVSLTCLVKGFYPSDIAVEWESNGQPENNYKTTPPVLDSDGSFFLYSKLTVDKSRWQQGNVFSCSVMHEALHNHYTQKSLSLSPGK
Target sequence in this assay (as listed by the source): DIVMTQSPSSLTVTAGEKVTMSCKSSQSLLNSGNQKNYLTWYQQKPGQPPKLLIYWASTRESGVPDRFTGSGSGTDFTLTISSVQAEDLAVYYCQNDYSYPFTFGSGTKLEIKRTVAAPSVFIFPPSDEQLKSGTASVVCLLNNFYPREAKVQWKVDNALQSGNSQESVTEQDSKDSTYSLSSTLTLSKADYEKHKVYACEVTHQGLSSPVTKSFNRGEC

[2] = tested on: advanced gastro-esophageal cancer; details: multiply pre-treated late-stage patients, single agent; cited from earlier work
[3] = In vivo pharmacokinetic analysis, serum measured by peptide ELISA with 2c mimotope peptide; details: approximately 50 mg/kg intravenously, Balb/cJ mice
Description: After 8, 24, 48, 72, 144, 168 and 192 hrs, blood samples were taken from two mice of each group for serum preparation. The serum samples were to be measured in the linear range of the assay (approximately 0.3-300 ng/ml). […] An IMAB362 standard row in presence of murine Balb/cJ control serum was assayed in parallel (0-25 ng/ml). The standard raw data were fitted by linear regression to calculate the antibody concentration from the mouse samples at the respective timepoint. Before the pharmakokinetic analysis, a permission for the animal experiment was obtained from the relevant local authority.

[4] = tested on: IMAB362; test: Peptide ELISA, biotinylated peptides on streptavidin plates; type: binding
Description: For the detection of IMAB362, the CLDN18.2 mimicking peptides were immobilized on streptavidin plates (Nunc) in a concentration of 0.75 μg/ml in PBS buffer for 1 hour at 37° C. Subsequently, the plate was washed three times with washing buffer (0.01% Tween-20 in PBS buffer) before it was blocked with 3% BSA in PBS overnight at 4° C. To detect IMAB362, the blocked plate was washed again three times with washing buffer followed by the addition of IMAB362 and incubation for 30 min at 37° C. After another washing step, it was incubated with an alkaline phosphatase conjugated anti-human Fc antibody (Jackson Immuno Research) for additional 30 min at 37° C. Finally, the plate was washed again before being incubated with 1.5 mg/ml of the substrate PNPP (para-nitrophenyl phosphate) in appropriate substrate buffer (1 M Diethanolamine, 0.05 mM MgCl2, 0.01% sodium azide, pH 9.8) for 30 min at RT in the dark. 3 M KOH was used to stop the enzymatic reaction. Absorbance was measured with a microplate reader (Infinite M200, Tecan). For dual wavelength analysis, 405 nm was chosen as measurement wavelength and 492 nm as reference wavelength. Absorbance values were calculated by subtraction of the measured values for the reference wavelength and for the measurement wavelength. Calculation of apparent KD values was done by fitting the data with Sigma Plot 10 using a two-site saturation binding model. […]

Compound | % Affinity compared to hit peptide [1] | further results
ACHLGYPGRCG [X-Ttds-Linearpeptide Seq. 3] | 0.1% | –
ACHYSYPGVCG [X-Ttds-Linearpeptide Seq. 2] | 0% | –
IMAB362: highly tumor-specific monoclonal IgG1 antibody directed against Claudin 18 isoform 2 (CLDN18.2) | – | antitumoral activity [2]: antitumoral activity; tolerability [2]: have shown tolerability; IMAB362 concentration in mice ([3]; after 8 hours): approximately 800 μg/ml; IMAB362 concentration in mice ([3]; at the end of the study (192 hrs)): approximately 350 μg/ml
ACHLGYPGRCG [Cyclopeptide-GGS-K(X) Seq. 3] | 100% | –
CC(C)[C@@H]1NC(=O)CNC(=O)[C@@H]2CCCN2C(=O)[C@H](Cc2ccc(O)cc2)NC(=O)CNC(=O)[C@H](Cc2ccc(O)cc2)NC(=O)[C@H](Cc2c[nH]cn2)NC(=O)[C@@H](NC(=O)[C@H](C)NC(=O)CCC(=O)NCCCOCCOCCOCCCNC(=O)CCCC[C@@H]2SC[C@@H]3NC(=O)N[C@@H]32)CSSC[C@@H](C(=O)NCC(=O)O)NC1=O [Peptide 2c] | – | binding curves of IMAB362 to peptide when antibody diluted with human serum ([4]; up to 20% human serum, background signal slightly increased at high serum concentrations): looked similar; binding of IMAB362 to peptide in the presence of mouse serum ([4]; up to 20% mouse serum): almost not affected
ACHLNYPGYCG [X-Ttds-Linearpeptide Seq. 1] | 0% | –
ACHLNYPGYCG [Cyclopeptide-GGS-K(X) Seq. 1] | 100% | –
ACHYSYPGVCG [Cyclopeptide-GGS-K(X) Seq. 2] | 100% | –
